Assay results: patent US20220133687A1, “METHODS OF TREATING AND PREVENTING NEURODEGENERATIVE DISEASES WITH HGF ACTIVATING COMPOUNDS” (Synaptogenix, Inc., priority 2020, published 2022)
Like-named read-outs stand apart in the source and are kept apart here.

Columns and labels:
PKC [1] = conditions: cited from earlier work
BDNF = experiment: Mouse dosing study: brain BDNF levels; assay type: in vivo; conditions: mice
From the text: (§1) The following metrics may be used to evaluate dosing regimens: induction of brain postsynaptic anchoring protein PSD-95, upregulation of BDNF levels in brain, upregulation of HGF levels in brain, minimal downregulation of PKC-c levels, and elevation of brain and plasma concentrations of bryostatin or other HGF activating compound. Groups of 2-3 mice may be formed and housed in an approved research animal facility. Water may be given ad libitum. A first study involves three groups of mice with animals in each group dosed weekly for 1, 2, 3, or 6 consecutive weeks. Each group has its own control group containing the same number of mice. For example, mice in the first, second and third groups may receive an intravenous (i.v.) injection of 10 μg/m^2, 15 μg/m^2, and 25 μg/m^2 dose of bryostatin or other HGF activating compound respectively. For each dose, mice in that group may receive a single injection of bryostatin or other HGF activating compound weekly for a predetermined number of consecutive weeks. Following dosing, mice are sacrificed and the blood and brain of each animal is collected for further analysis.
At a dose of 25 μg/m^2, the levels of brain BDNF may increase with each successive week of dosing, that is, brain BDNF levels may be greatest after three consecutive weeks of dosing. […]

PSD-95 = experiment: Mouse dosing study: PSD-95 levels; assay type: in vivo; conditions: mice, 25 μg/m^2 i.v. once per week, after three weeks
From the text: as §1
A similar observation can be made concerning the levels of the synaptogenesis marker PSD-95. […] Continued weekly dosing at 10 μg/m^2 for another three consecutive weeks (total of 6 consecutive weeks) may result in downregulation.

PKC-ε = experiment: Mouse dosing study: brain PKC-ε downregulation; assay type: in vivo; conditions: mice, 25 μg/m^2 three consecutive weekly doses vs lower doses
From the text: as §1
A similar observation can be made concerning the levels of the synaptogenesis marker PSD-95. […] Continued weekly dosing at 10 μg/m^2 for another three consecutive weeks (total of 6 consecutive weeks) may result in downregulation. […]

PKC [2] = target: T1, PKC; conditions: competition with [3H] phorbol dibutyrate; cited from earlier work
T1 construct: rows headed: Ki for PKC

[3] = system: squamous cell carcinoma and melanoma; conditions: used topically; cited from earlier work
NCI 60 cell line screen = conditions: cited from earlier work
protein kinase C = conditions: (−)-enantiomer; read-out: potency EC50; cited from earlier work

## CCCCCCCC(=O)O[C@H]1/C(=C/C(=O)OC)C[C@H]2C[C@H](CO)OC(=O)C[C@H](O)C[C@@H]3CCC[C@H](C[C@@H]4CCO[C@H](/C=C/C(C)(C)[C@]1(O)O2)O4)O3 [Analog 1]
PKC [1]
  affinity for PKC (in words): highest affinity for PKC
PKC [1]; read-out: PKC Affin
  Ki: 0.00025 µM

## CCC/C=C/C=C/C(=O)O[C@H]1/C(=C/C(=O)OC)C[C@H]2C[C@H]([C@@H](C)O)OC(=O)C[C@H](O)C[C@@H]3C[C@H](OC(C)=O)C(C)(C)[C@](O)(C[C@@H]4C/C(=C/C(=O)OC)C[C@H](/C=C/C(C)(C)[C@]1(O)O2)O4)O3 [Bryostatin-1]
BDNF; 15 μg/m^2 weekly for three consecutive weeks
  levels of brain BDNF: some increase
BDNF; 25 μg/m^2 weekly
  levels of brain BDNF: maximum increase
PSD-95
  amounts of PSD-95 in brain and blood samples: higher amounts of PSD-95
PKC-ε
  PKC-ε downregulation in brain: may not produce more PKC-c downregulation

## CC1=C[C@]23C(=O)[C@@H](C=C(COC(=O)c4ccccc4)[C@@H](O)[C@]2(O)[C@H]1OC(=O)c1ccccc1)[C@H]1[C@@H](C[C@H]3C)C1(C)C [Ingenol 3,20-dibenzoate]
PKC [2]
  Ki: 0.24 µM

## C/C=C(/C)C(=O)O[C@H]1C(C)=C[C@]23C(=O)[C@@H](C=C(CO)[C@@H](O)[C@]12O)[C@H]1[C@@H](C[C@H]3C)C1(C)C [Ingenol-3-angelate]
[3]
  antitumor activity: exhibits antitumor activity

## CC1=CC[C@H](C)C(C)(C)[C@@H]1/C=C/C(C)=C/CC[C@@]1(CO)[C@H](CCCO)/C(=C(/C)C=O)CC[C@]1(C)O [Iripallidal]
NCI 60 cell line screen
  GI50 (concentration required to inhibit growth by 50%): micromolar to nanomolar range

## CCCCCCCCc1ccc2c3c(c[nH]c13)C[C@@H](CO)NC(=O)[C@H](C(C)C)N2C [Octylindolactam V]
Protein kinase C
  EC50: 0.029 µM
